Experimental data taken from patent US11033569B2, “Compounds,Compositions, and methods for the treatment of disease” (Sperovie Biosciences, Inc., priority 2016, dated 2021).

Columns and labels:
[1] = test system: ISG54 ISRE-luc reporter; assay: ISG54 ISRE-luc reporter activation in HEK293 (SZ14) cells, screen for STING agonists; type: cell-based; conditions: digitonin buffer, 5 hours, read-out: IRF EC50
Description: (§1) ISG54 or NF-κβ activity was determined using the Steady-glo buffer system (Promega), and are expressed as EC50 values summarized in Table 3 below. […] This calculation is applicable for compounds with enzyme inhibition activity, as the baseline for an untreated sample may be set at 100% enzymatic activity, and therefore % inhibition is evaluated based on this 100% maximal basis. For these studies, the EC50 value relates to the concentration required to achieve a value 50% activity level above the untreated sample set at 0%.
(§2) Data are shown as fold induction over cells that received DMSO (compound carrier) alone as the mean, +/−standard deviation of duplicate wells per stimulant.

[2] = test system: NF-κβ-luc reporter; assay: NF-κβ-luc reporter activation in HEK293 (SZ14) cells, screen for STING agonists; type: cell-based; conditions: digitonin buffer, 5 hours, read-out: NF-KB EC50
Description: as §1, §2

[3] = Oral maximum tolerated dose study in BALB/c mice; type: in vivo
Description: In order to investigate the maximum tolerated dosage of orally administered compounds, 15 female BALB/c mice between 7-10 weeks old were split into three treatment groups. Each group was administered either Cmd 1 or vehicle orally, according to the schedule outlined in Table 5 below. Cmd 1 was provided at 10 mL/kg (0.200 mL/20 g mouse).

[4] = test system: CD8+ T cells, CD4+ T cells, and MDSCs; assay: Flow cytometry of immune cells in spleen, lymph nodes and blood; type: in vivo; conditions: lymph nodes and blood on day 19, compared with vehicle
[5] = test system: CT26 colon cancer; assay: Syngeneic CT26 colon cancer mouse model; type: in vivo
[6] = test system: THP1 cells; assay: Caspase-Glo 3/7 apoptosis assay in THP1 cells; type: cell-based; conditions: THP1, Lipofectamine LTX, 20 h
Description: The Apoptosis in THP1 cells was assessed using Caspase-Glo® 3/7 Assay (Promega). […] The caspase-3 and -7 activity was measured by using a pro-luminescent caspase-3/7 substrate that contains the tetrapeptide sequence DEVD which is cleaved to release amino-luciferin, a substrate of luciferase used in the production of light. After incubation for 20 h, Apoptotic activity was assessed by measuring levels of amino-luciferin. % Apoptosis was calculated from fold-change in luminescence compared to DMSO-treated sample. CC50 values are generated by curve fit in Xlfit.

[7] = test system: THP1 cells and PBMCs; assay: Caspase-Glo 3/7 apoptosis assay, THP1 vs. PBMCs; type: cell-based; conditions: Lipofectamine LTX, 20 h
Description: The Apoptosis in THP1 cells and PBMCs was assessed using Caspase-Glo® 3/7 Assay (Promega). […] The caspase-3 and -7 activity was measured by using a proluminescent caspase-3/7 substrate that contains the tetrapeptide sequence DEVD which will be cleaved to release aminoluciferin, a substrate of luciferase used in the production of light. After incubation for 20 h, Apoptotic activity was assessed by measure levels of aminoluciferin. % Apoptosis was calculated from fold change in luminescence compared to DMSO treated sample.

[8] = test system: THP1 cells and PBMCs; assay: Gene expression of ISGs and PRRs in THP1 and PBMCs (real time PCR); type: cell-based; conditions: 5 uM, Lipofectamine LTX, 20 h
Description: (§3) After incubation for 20 h, RNA was extracted and gene expression of different Interferon Stimulated Genes (ISGs) and various Pattern Recognition Receptors (PRRs) was evaluated by real time PCR. Fold Induction was calculated by ΔΔct method.
as §3

[9] = test system: Tumor cells; assay: Tumor cell growth inhibition (DAPI imaging, ImageXpress); type: cell-based; conditions: once daily for 3 days, no lipofectamine
Description: Tumor cells in 96-well plate were treated once daily with Cmd 1 (no lipofectamine) or recombinant IFN (U-IFN) for 3 days. Cells were fixed with 1% paraformaldehyde and stained with DAPI. Cells were automatically imaged on ImageXpress and total number of survival cells were analyzed using MetaXpress software. Results are shown as total number of cells per group or % reduction calculated by normalizing to DMSO treated cells.

[10] = test system: tumor cells and THP1 cells; assay: Tumor cell growth, high-content image-based approach
[11] = target: T1, STING (Homo sapiens, UniProt Q86WV6); assay: STING binding / type I IFN signaling (ISRE-luciferase); type: cell-based; conditions: similar to 2′,3′-cGAMP
T1 construct: host or cells: SZ14 HEK293 cells stably expressing ISG54 ISRE-luc reporter
T1 sequence (Q86WV6 whole entry): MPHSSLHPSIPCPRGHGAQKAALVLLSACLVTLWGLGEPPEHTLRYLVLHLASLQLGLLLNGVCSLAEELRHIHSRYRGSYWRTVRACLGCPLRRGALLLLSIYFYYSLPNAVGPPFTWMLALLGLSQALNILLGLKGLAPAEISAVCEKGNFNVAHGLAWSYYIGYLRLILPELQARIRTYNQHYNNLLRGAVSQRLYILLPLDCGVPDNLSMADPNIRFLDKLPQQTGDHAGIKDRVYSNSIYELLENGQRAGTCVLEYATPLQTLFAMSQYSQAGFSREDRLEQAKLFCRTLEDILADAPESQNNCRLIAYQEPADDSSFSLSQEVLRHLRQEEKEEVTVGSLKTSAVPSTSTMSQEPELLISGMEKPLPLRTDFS
Description: SZ14 HEK293 cells stably expressing the ISG54 ISRE-luc reporter gene were treated with compound exemplary compounds Cmd 1, 2′ 3-cGAMP (natural STING ligand), or DMSO in the presence of digitonin for 5-6 hrs. ISRE-luciferase activity was determined and normalized to DMSO treated cells (mean±standard deviation of triplicate wells per stimulant).

[12] = test system: human monocytes; assay: Activity in human monocytes; type: cell-based; conditions: human monocytes (FIG. 36A)
[13] = test system: THP1 cells; assay: Type III IFN (IL-29) production in THP1 cells (ELISA); type: cell-based; conditions: 21 hrs
Description: Level of IL-29 in culture supernatant was determined using ELISA. Results shown are the average±standard deviation of duplicate wells.

[14] = target: STING-HAQ polymorphic variant (Homo sapiens, UniProt Q86WV6, G230A/H232R/R293Q/R71H); assay: Activation of STING-HAQ polymorphic variant; type: cell-based; conditions: major STING-HAQ polymorphic variant in humans
Sequence of STING-HAQ polymorphic variant (Q86WV6 whole entry R71H/G230A/H232R/R293Q): as the sequence (Q86WV6 whole entry) above, with R71H, G230A, H232R, R293Q counted along it

[15] = test system: mouse lymphoma cell line A20; assay: Apoptosis in mouse lymphoma cell line A20; type: cell-based; conditions: A20 cells
[16] = test system: mouse A20 B cell lymphoma tumor cells; assay: Inhibition of mouse A20 B cell lymphoma tumor cells; conditions: FIGS. 48A-48D
[17] = test system: A20 mouse B cell lymphoma tumor cells; assay: Apoptosis-related genes and ISGs in A20 mouse B cell lymphoma tumor cells; type: cell-based; conditions: compared with 2′3′-cGAMP
[18] = test system: IRF-type I and type III IFN response; assay: IRF-type I and type III IFN response; type: cell-based
[19] = test system: human natural killer (NK) cells; assay: Human natural killer (NK) cell activation; type: cell-based
[20] = target: T2, STING (Homo sapiens, UniProt Q86WV6, G230A/H232R/R293Q/R71H); assay: Role of STING palmitoylation in THP1 cells; type: cell-based
T2 construct: endogenous in cells; host or cells: THP1 cells
T2 sequence (Q86WV6 whole entry R71H/G230A/H232R/R293Q): as the sequence (Q86WV6 whole entry) above, with R71H, G230A, H232R, R293Q counted along it

[21] = 60 mg/kg po bid x 10 (first day 1 dose), n=5
[22] = oral, once daily or twice daily up to 60 mgkg/day

In the case of `CCCCCCCCCCOc1ccc(C(=O)Oc2ccc(CSP3(=O)OC[C@H]4O[C@@H](n5cnc6c(N)ncnc65)[C@H](F)[C@@H]4OP(=O)(O)OC[C@H]4O[C@@H](n5ccc(=O)[nH]c5=O)[C@H](F)[C@@H]4O3)cc2)cc1.N` (stereo partly shown) [Cmd 1], the EC50 [1] is reported as < 50 nM, the EC50 [2] is reported as 50 to 500 nM and the NTR [3, 21] is reported as 0. For the same molecule, the NTRm [3, 21] was 0, the TR [3, 21] was 0 and the “BW Nadir” value ([3]; 60 mg/kg po bid x 10 (first day 1 dose), nadir day (11)) was −3.6%. It also gave an NTR ([3]; 60 mg/kg po qd x 10, n=5) of 0, an NTRm ([3]; 60 mg/kg po qd x 10, n=5) of 0 and a TR ([3]; 60 mg/kg po qd x 10, n=5) of 0. The adverse clinical signs [3, 22] was “no adverse clinical signs”, the tolerability [3, 22] was “well tolerated” and the “induction of CD8+ T cells, CD4+ T cells, and MDSCs” value [4] was “increase in CD8+ T cells, CD4+ T cells, and MDSCs”. The “abscopal antitumoral activity, tumor volume left and right flank” value ([5]; administered intratumorally, 13 days post initiation treatment, vs vehicle) was “considerable tumor growth inhibition”, the survival rate ([5]; combination therapy with an anti-CTLA4 antibody) was “significantly improve the survival rate” and the tumor growth ([5]; doses 10 μg, 30 μg, and 100 μg, vs vehicle) was “considerable tumor growth inhibition at all three doses”. For the same molecule, the tumor growth ([5]; intratumoral administration, vs vehicle (FIG. 79)) was “considerable tumor growth inhibition”, the tumor growth ([5]; intratumoral administration, vs vehicle, vehicle and Ethanol (FIG. 80)) was “considerable tumor growth inhibition” and the survival rate ([5]; monotherapy) was “significantly improve the survival rate”. The tumor growth ([5]; syngeneic CT26 colon cancer model (FIG. 62)) was “highly effective in inhibiting tumor growth”, the apoptosis [6] was “Causes Cell Death by Apoptosis” and the “selectivity of apoptosis induction THP1 vs. PBMCs” value [7] was “selective induction of apoptosis”. The “induction of ISG and PRR-associated genes, THP1 compared to PBMCs” value [8] was “selective and enhanced induction of ISG and PRR-associated genes”, the tumor cell growth [9] was “Inhibits Tumor Cell Growth” and the anti-tumor activity ([10]; high-content image-based approach (FIG. 49)) was “anti-tumor activity”. The “STING dependence of tumor cell growth inhibition” value ([10]; tumor cells and THP1 cells) was “STING dependent”, the tumor cell growth ([10]; tumor cells and THP1 cells, high-content image-based approach) was “inhibits tumor cell growth” and the “STING binding and type 1 IFN signaling” value [11] was “binds to STING to activate type 1 IFN signaling”. For the same molecule, the “activity relative to natural STING ligand 3′,3′-cGAMP” value [12] was “more active”, the “type III interferon (IL-29) production” value [13] was “induce type III interferon (IL-29) production” and the “activation of STING-HAQ variant” value [14] was “capable of activating”. The apoptosis [15] was “induces apoptosis”, the “inhibition of tumor cells” value [16] was “inhibits mouse A20 B cell lymphoma tumor cells” and the BAX/BCL2 ratio [17] was “higher BAX/BCL2 ratio”. The “IRF-type I and type III IFN response” value [18] was “strongly activates”, the NK cell activation [19] was “activates human natural killer (NK) cells” and the IFN-γ production ([19]; human NK cells) was “induces IFN-γ production”. For the same molecule, the “involvement of STING palmitoylation in activation of NF-κB and IRF-type I interferon response” value [20] was “palmitoylation of STING is involved”.
